Legend:
Mino cells = experiment: Antiproliferative effect, MTS cell viability assay, Mino cells; type: cell-based; details: Homo sapiens, MINO, Mino mantle cell lymphoma cells; read-out: IC50 (anti-proliferation) Mino cells
How it was run: (§1)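 Absorbance at 490 nm of formazan, formed by metabolically active cells from MTS tetrazolium, served as the viability measure after a 72 h treatment across a 0.001–10 μM concentration series plus untreated control.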

JeKo-1 cells = experiment: Antiproliferative effect, MTS cell viability assay, JeKo-1 cells; type: cell-based; details: Homo sapiens; JeKo-1 mantle cell lymphoma cells; read-out: IC50 (anti-proliferation) JeKO-1 cells
How it was run: as §1

[1] = system: primary human CLL cell CTG-3763; experiment: Ex vivo cell inhibition, Cell Titer Glo viability, primary CLL cell CTG-3763; type: cell-based; details: 10 nM to 50 μM, 6 days
Method: (§2) Primary human Human Chronic Lymphocytic Leukemia cell lines were used to measure ex vivo cell inhibition by exemplary compounds. The cells were incubated with test compounds at a dose range of 10 nM to 50 μM for 6 days. Cell Titer Glo data were gathered for cell viability evaluation.

[2] = system: primary human CLL cell CTG-3754; experiment: Ex vivo cell inhibition, Cell Titer Glo viability, primary CLL cell CTG-3754; type: cell-based; details: 10 nM to 50 μM, 6 days
Method: as §2

BTK [3] = biological target: T1, BTK (Homo sapiens, UniProt Q06187); experiment: BTK degradation, DC50 and Dmax of Table 1 (cell line not given); type: cell-based; parameters: endogenous in cells; details: for DC50: concentration giving 50% reduction of BTK expression level
BTK [4] = biological target: T1, BTK; experiment: Degradation of BTK protein in Namalwa cells (Western blot; DC50, Dmax); details: Namalwa B lymphocyte cells, Western blot; for degradation of BTK protein: various concentrations, 24 hours
MOLT-4 cell = experiment: Cell apoptosis by flow cytometry, MOLT-4 cells; type: cell-based; details: 1 and 10 μM, 72 hours, in vitro
Method: (§3) Cell apoptosis induced by treatment of exemplary compounds was measured by flow cytometry.
(§4) Flow cytometry analysis was performed after staining of the cells with PI and 7-AAD. For PI staining, 0.5×10^6 cells/mL were centrifuged at 1500 rpm for 5 min, supernatant was removed, and cell pellet was gently suspended with 1 ml Krishan buffer and then incubated at 4° C. in the dark for 60 min. Apoptosis was determined by Cytomic's FC500 Flow Cytometer (Beckman Coulter) and the data were analyzed by Win Cycle Multicycle Software (De Novo Software). For the 7-AAD staining, 0.5×10^6 cells were washed with PBS and centrifuged at 1500 rpm for 5 min. Supernatant was removed and the cell pellet was suspended in 100 μL PBS. 10 μL 7-AAD was added to each tube and incubated for 20 min at room temperature in the dark. 7-AAD labeled-cells were analyzed by Cytomic's FC500 Flow Cytometry (Beckman Coulter) and FCS Express Flow Cytometry Data Analysis software (DeNovo Software). For morphologic analysis of apoptosis by light microscopy, cells were incubated with Mock or with […] for 72 h. Control or drug treated-cells were cytospun on glass slides, stained with Wright-Giemsa, and then examined by light microscopy. Morphological changes associated with apoptosis included cellular shrinkage, nuclear condensation, nuclear fragmentation, and formation of apoptotic bodies. […]

Namalwa cell = experiment: Cell apoptosis by flow cytometry, Namalwa cells; type: cell-based; details: 1 and 10 μM, 72 hours, in vitro
Method: as §3, §4

JeKo-1 cell = experiment: Cell apoptosis by flow cytometry, JeKo-1 cells; type: cell-based; details: 0.1, 1, and 10 μM, 72 hours, in vitro
Method: as §3, §4

Mino cell = experiment: Cell apoptosis by flow cytometry, Mino cells; type: cell-based; details: 1 and 10 μM, 72 hours, in vitro
Method: as §3, §4

Jeko-1 xenograft tumor = experiment: In vivo tumor inhibition efficacy, JeKo-1 xenograft in NOD/SCID mice; details: 20 mg/kg daily oral gavage for 3 weeks
Method: JeKo-1 cells were obtained from American Type Culture Collection (ATCC, Manassas, VA). cells were maintained in RPMI 1640 (Life Technologies, Grand Island, NY) supplemented with 10% heat-inactivated fetal bovine serum (56° C. for 30 minutes), penicillin (10,000 units/mL; Sigma, St Louis, Mo), streptomycin (10 mg/mL; Sigma), gentamicin (50 mg/mL; Life Technologies), amphotericin B (25 mg/mL; Sigma), and L-glutamine (200 mM, 29.2 mg/mL; Life Technologies). culture, as previously described (29, 30). JeKo-1 cells (10 million) were subcutaneously implanted into the flank of NOD/SCID mice. When the average tumor volume reached approximately 300 mm^3, the following treatments were administered in cohorts of 5 mice for each treatment: vehicle alone, 20 mg/kg ibrutinib, 20 mg/kg Compound 2, and 20 mg/kg Compound 161 was administered daily via oral gavage for 3 weeks. Tumor growth was monitored every other day by calipers and tumor volume was calculated using the equation: (½(length×width^2)).

BTK [5] = biological target: T1, BTK; experiment: Degradation of BTK protein in JeKo-1 cells (Western blot; DC50, Dmax); details: JeKo-1 mantle cell lymphoma cells, various concentrations, 24 hours
Method: (§5) Namalwa, JeKo-1, or Mino cells were plated in 24-well plates at a density of 10^5 cells/well. Media containing various drug concentrations were added on the day following plating (day 0) and allowed to incubate for 24 hours for Western blot. Media with the tested compound was changed every other day. […] Media were removed and dishes were washed with 1×DPBS. Lysates were made by adding 150 μL of complete lysis solution and scraping cells into a 1.5 mL microcentrifuge tube. Lysates were placed on a rotisserie at 4° C. for 30 min and then spun at 4° C. at 12000 rcf for 10 min. Supernatants were assayed for protein content, snap-frozen, and stored a −80° C. if not run immediately. Then 50 μg of protein was subjected to Western blot protocol. […] They were then imaged on a LICOR infrared scanner.

BTK [6] = biological target: T1, BTK; experiment: Degradation of BTK protein in Mino cells (Western blot; DC50, Dmax); details: Mino mantle cell lymphoma cells, various concentrations, 24 hours
Method: as §5

T1 sequence (Q06187 whole entry): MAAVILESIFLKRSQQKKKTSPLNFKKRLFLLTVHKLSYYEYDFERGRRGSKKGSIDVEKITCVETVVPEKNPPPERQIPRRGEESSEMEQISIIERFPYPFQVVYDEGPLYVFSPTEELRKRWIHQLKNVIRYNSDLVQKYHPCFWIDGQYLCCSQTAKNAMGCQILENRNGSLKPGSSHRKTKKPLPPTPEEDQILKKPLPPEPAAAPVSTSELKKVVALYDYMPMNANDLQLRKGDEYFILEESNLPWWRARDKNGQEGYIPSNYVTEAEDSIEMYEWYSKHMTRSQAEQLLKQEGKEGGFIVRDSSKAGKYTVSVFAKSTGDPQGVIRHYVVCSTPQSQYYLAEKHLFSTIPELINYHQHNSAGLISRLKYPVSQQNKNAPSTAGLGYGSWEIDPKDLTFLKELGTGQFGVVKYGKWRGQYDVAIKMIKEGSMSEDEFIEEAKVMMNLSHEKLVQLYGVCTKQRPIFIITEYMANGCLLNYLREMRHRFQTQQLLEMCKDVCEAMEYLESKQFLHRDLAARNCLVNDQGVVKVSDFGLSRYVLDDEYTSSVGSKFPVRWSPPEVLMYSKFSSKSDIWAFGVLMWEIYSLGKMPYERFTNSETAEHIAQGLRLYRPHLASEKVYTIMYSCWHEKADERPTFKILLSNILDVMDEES

| Compound | IC50 (Mino cells) | IC50 (JeKo-1 cells) | effect on primary human CLL cell viability [1] | effect on primary human CLL cell viability [2] | Dmax (BTK [3]) | DC50 (BTK [3]) | degradation of BTK protein (BTK [4]) | induction of cell apoptosis (MOLT-4 cell) | induction of cell apoptosis (Namalwa cell) | induction of cell apoptosis (JeKo-1 cell) | induction of cell apoptosis (Mino cell) | efficacy in inhibiting xenograft tumor growth (Jeko-1 xenograft tumor) | degradation of BTK protein (BTK [5]) | degradation of BTK protein at 10^−6 M (BTK [4]; 10^−6 M) | degradation of BTK protein (BTK [6]) |
| --- | --- | --- | --- | --- | --- | --- | --- | --- | --- | --- | --- | --- | --- | --- | --- |
| Nc1ncnc2c1c(-c1ccc(Oc3ccccc3)cc1)nn2C1CCN(CCOCCOCCN2CCN(c3ccc4c(c3)C(=O)N(C3CCC(=O)NC3=O)C4=O)CC2)CC1 (stereo not shown) [Compound 1] | 1000 to 10000 nM | 1000 to 10000 nM | dose-dependent effect | dose-dependent effect | > 90% | 10 to 50 nM | dose-dependent degradation |  |  |  |  |  |  |  |  |
| Nc1ncnc2c1c(-c1ccc(Oc3ccccc3)cc1)nn2C1CCN(CCOCCOCCN2CCN(c3ccc4c(c3)CN(C3CCC(=O)NC3=O)C4=O)CC2)CC1 (stereo not shown) [Compound 2, 3-(5-(4-(2-(2-(2-(4-(4-amino-3-(4-phenoxyphenyl)-1H-pyrazolo(3,4-d)pyrimidin-1-yl)piperidin-1-yl)ethoxy)ethoxy)ethyl)piperazin-1-yl)-1-oxoisoindolin-2-yl)piperidine-2,6-dione] | < 1000 nM | < 1000 nM | dose-dependent effect | dose-dependent effect | > 90% | < 10 nM | dose-dependent degradation | induction of MOLT-4 cell apoptosis | induction of Namalwa cell apoptosis | induction of JeKo-1 cell apoptosis | induction of Mino cell apoptosis | inhibiting Jeko-1 xenograft tumor growth | dose-dependent degradation |  |  |
| Nc1ncnc2c1c(-c1ccc(Oc3ccccc3)cc1)nn2[C@@H]1CCCN(C2CCN(C(=O)N3CCC(N4CCN(c5ccc6c(c5)C(=O)N(C5CCC(=O)NC5=O)C6=O)CC4)CC3)CC2)C1 (stereo partly drawn) [Compound 161, 5-(4-(1-((R)-3-(4-amino-3-(4-phenoxyphenyl)-1H-pyrazolo(3,4-d)pyrimidin-1-yl)-(1,4′-bipiperidine)-1′-carbonyl)piperidin-4-yl)piperazin-1-yl)-2-(2,6-dioxopiperidin-3-yl)isoindoline-1,3-dione] | < 1000 nM | < 1000 nM |  |  | > 90% | 10 to 50 nM | dose-dependent degradation |  |  |  |  | inhibiting Jeko-1 xenograft tumor growth |  | degradation |  |
| Nc1ncnc2c1c(-c1ccc(Oc3ccccc3)cc1)nn2[C@@H]1CCCN(C(=O)N2CCC(N3CCN(c4ccc5c(c4)CN(C4CCC(=O)NC4=O)C5=O)CC3)CC2)C1 (stereo partly drawn) [Compound 52, 3-(5-(4-(1-((R)-3-(4-amino-3-(4-phenoxyphenyl)-1H-pyrazolo(3,4-d)pyrimidin-1-yl)piperidine-1-carbonyl)piperidin-4-yl)piperazin-1-yl)-1-oxoisoindolin-2-yl)piperidine-2,6-dione] | < 1000 nM | < 1000 nM |  |  | > 90% | < 10 nM | dose-dependent degradation |  |  |  |  |  | dose-dependent degradation |  | dose-dependent degradation |

— patent US12139492B2 (Endotarget Inc., priority 2021, dated 2024)
